In paper PMC11649784, “Re-design and evaluation of diclofenac-based carborane-substituted prodrugs and their anti-cancer potential” (Scientific Reports, 2024):

Legend:
human recombinant COX-2 = target: T1, human recombinant COX-2 (Homo sapiens, UniProt P35354); experiment: COX Fluorescent Inhibitor Screening Assay, COX-2; type: biochemical
T1 construct: purchased Cayman Chemical Company, Ann Arbor, MI, USA
T1 sequence (P35354 18-604): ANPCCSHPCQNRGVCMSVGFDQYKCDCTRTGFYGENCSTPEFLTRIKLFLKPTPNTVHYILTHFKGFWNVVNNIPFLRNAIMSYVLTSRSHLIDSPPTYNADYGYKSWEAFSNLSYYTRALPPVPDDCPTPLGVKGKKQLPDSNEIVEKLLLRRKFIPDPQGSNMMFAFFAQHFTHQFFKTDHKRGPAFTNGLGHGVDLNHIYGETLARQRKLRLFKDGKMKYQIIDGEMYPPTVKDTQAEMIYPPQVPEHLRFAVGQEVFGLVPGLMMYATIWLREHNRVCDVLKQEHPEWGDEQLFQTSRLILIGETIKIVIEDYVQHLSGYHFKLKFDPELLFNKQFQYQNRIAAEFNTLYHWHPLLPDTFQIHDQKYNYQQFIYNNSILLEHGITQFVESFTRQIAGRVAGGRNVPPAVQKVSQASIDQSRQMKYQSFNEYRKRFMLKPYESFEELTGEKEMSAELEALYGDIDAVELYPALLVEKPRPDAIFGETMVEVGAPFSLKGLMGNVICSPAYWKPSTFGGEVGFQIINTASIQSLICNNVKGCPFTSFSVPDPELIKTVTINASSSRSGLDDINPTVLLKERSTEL
Experimental: The COX inhibition activity against ovine COX-1 and human recombinant COX-2 was determined using the COX Fluorescent Inhibitor Screening Assay Kit (Cayman Chemical Company, Ann Arbor, MI, USA) according to the manufacturer’s instructions as reported.

HT29 cells = experiment: MTT viability assay, HT29; type: cell-based, human; details: 72 h, mean±SD; read-out: IC50 [μM] (n = 3) HT29 MTT
Experimental: In a preliminary test, the stability of all compounds dissolved in the cell medium (c = 100 μM, T = [drawing 47] ) for 72 h was validated by HPLC (see Supporting Information). Cell lines were incubated with the respective compounds in a concentration range of 1.56–100 μM for 72 h, and cell viability was measured using 3-(4,5-dimethylthiazol-2-yl)-2,5-diphenyltetrazolium bromide (MTT) and crystal violet (CV) assays. […] As MTT tests gave inconsistent results, possibly due to interference of the compound with mitochondrial respiration, for the further evaluation only the CV results are considered[97],[98].
The biological study was performed on a murine colon adenocarcinoma cell line (MC38), two human colorectal carcinoma cell lines (HCT116 and HT29), and a human fetal lung fibroblast cell line (MRC-5). All cell lines are commercially available and were obtained from the American Type Culture Collection (ATCC). The human cell lines were kept in HEPES-buffered RPMI-1640 medium supplemented with 10 [drawing 141] heat-inactivated FCS, 2 mM L-glutamine, 0.01 [drawing 142] sodium pyruvate, penicillin (100 units mL^−1), and, streptomycin ( [drawing 143] mL^-1). The MC38 cell line was maintained in DMEM medium additionally supplemented with 1 [drawing 144] non-essential amino acids. Cells were grown at [drawing 145] in a humidified atmosphere with 5 [drawing 146] [drawing 147] . Peritoneal exudate cells (PECs) were isolated from healthy C57BL/6 mice (males, n = 3, 3 months old, weight 22–25 g) by performing an ice-cold PBS peritoneal lavage. Mice were sacrificed by cervical dislocation. Cells were cultivated for 4 h when nonadherent population was removed by washing in PBS, and additionally cultivated overnight in HEPES-buffered RPMI-1640 medium supplemented with 5 [drawing 148] heat-inactivated FCS before treatment with experimental drugs. Animal handling and protocol for isolation of PECs were performed according to European Union rules, and the ARRIVE guidelines 2.0.
For the viability tests, MC38, HCT116, and HT29 cells were seeded in 96-well plates at a density of 2 [drawing 149] 103, 5 [drawing 150] 103, and 6 [drawing 151] 10^3 cells/well, respectively. To determine whether the drug affected the viability of healthy, non-malignant cells, MRC-5 and PECs were seeded in 96-well plates at a density of 8 [drawing 152] 103 and 2 [drawing 153] 10^5 cells/well, respectively. For the flow cytometric analyses, MC38 cells were seeded in 6-well plates at 5 [drawing 154] 10^4 cells/well. For morphological assessment of nuclei and the detection of autophagy, MC38 cells were seeded in 2-well chamber slides at 1.5 [drawing 155] 10^4 cells/well.
After 72 h, cell viability was determined using MTT and CV tests. First, the supernatant from the wells was discarded and the cells were incubated with an MTT solution (0.5 mg mL^−1). After half an hour, the purple formazan crystals formed were dissolved in DMSO. For CV staining of the cells, the cells were fixed with 4 [drawing 157] PFA for 10 min and then stained with a 0.02 [drawing 158] CV solution for 15 min, all at room temperature (RT). The cells were then washed with tap water, air-dried and the dye was dissolved in 33 [drawing 159] acetic acid. For both viability tests, the absorbance of the developed colors was measured using an automated microplate reader at 570 nm with a reference wavelength of 670 nm. The results were expressed as a percentage of the control values of the untreated cells, which were arbitrarily set at 100 [drawing 160] . IC50 values, defined as 50 [drawing 161] inhibitory concentration, were calculated using a four-parameter logistic function and presented as mean±SD. All biological experiments were performed in triplicates. To evaluate the nature of the detected autophagy, a combined treatment with compound 3 and the autophagy inhibitors chloroquine (Chlq) and 3-methyladenine (3-MA) was carried out. […] After 72 h, cell viability was determined by CV assay.

MC38 cells [1] = experiment: ApoStat caspase activity, flow cytometry; type: cell-based, murine; details: IC50 concentration, 72 h
Experimental: (§1) For all flow cytometric analyses, MC38 cells were seeded overnight and then treated with the IC50 concentration of compound 3 for 72 h. The cells were harvested, washed, and stained according to the manufacturer’s instructions for each method. To determine whether the compound induces apoptosis, cells were double stained with AnnV-FITC and PI (15 μg mL^–1) for 15 min at RT in the dark. To detect caspase activity, cells were stained with the FITC-conjugated caspase inhibitor ApoStat for 30 min at [drawing 162] . To detect cell proliferation, MC38 cells were stained with CFSE (1 μM) for 10 min at [drawing 163] prior to seeding and then treated as previously described. To detect intracellular production of Reactive oxygen/nitrogen Species (ROS/RNS), MC38 cells were prestained with DHR 123 (1 [drawing 164] M) for 20 min at [drawing 165] , then seeded and exposed to an IC50 concentration of compound 3. After 72 h incubation, all samples were washed, resuspended in PBS and fluorescence intensity was analyzed using a CytoFLEX [drawing 166] flow cytometer (Beckman Coulter, Pasadena, CA, USA), while the data obtained was evaluated using the [drawing 167] software program.

MC38 cells [2] = experiment: DHR 123 ROS/RNS production, flow cytometry; type: cell-based, murine; details: IC50 concentration, 72 h
Experimental: as §1

- %Inh. @ 100 μM (n = 2) COX-2 (human recombinant COX-2; 100 μM): 105%
- IC50 (human recombinant COX-2; absolute IC50, 0.1 to 100 μM in duplicate, 95% CI in brackets): 4.58 µM
- COX inhibition, in words (human recombinant COX-2; in vitro COX assay, COX-1 and COX-2): moderately active COX-inhibitors
- SI1/2 = IC50(COX-1)/IC50(COX-2) (human recombinant COX-2; selectivity index): 3.3
- IC50 (HT29 cells): 17 ± 1.6 µM
Substance: 1-[2-(7,8-dicarba-nido-undecaborate)]- [drawing 126] H-indolium-2-amine [compound 3]
- total caspase activity vs controls (MC38 cells [1]): no significant change in total caspase activity
- production of ROS/RNS (DHR 123) (MC38 cells [2]): strongly depleted
